Results on 22 compounds are retold here after patent publication US20140120087A1, “TRIAZOLOPYRIDINES” (BAYER INTELLECTUAL PROPERTY GMBH, priority 2011, published 2014).

SMILES strings stand for the structures.

Assay [1] has as its target T1, Mps-1 kinase (Homo sapiens, UniProt P33981).
T1 sequence (P33981 1-857): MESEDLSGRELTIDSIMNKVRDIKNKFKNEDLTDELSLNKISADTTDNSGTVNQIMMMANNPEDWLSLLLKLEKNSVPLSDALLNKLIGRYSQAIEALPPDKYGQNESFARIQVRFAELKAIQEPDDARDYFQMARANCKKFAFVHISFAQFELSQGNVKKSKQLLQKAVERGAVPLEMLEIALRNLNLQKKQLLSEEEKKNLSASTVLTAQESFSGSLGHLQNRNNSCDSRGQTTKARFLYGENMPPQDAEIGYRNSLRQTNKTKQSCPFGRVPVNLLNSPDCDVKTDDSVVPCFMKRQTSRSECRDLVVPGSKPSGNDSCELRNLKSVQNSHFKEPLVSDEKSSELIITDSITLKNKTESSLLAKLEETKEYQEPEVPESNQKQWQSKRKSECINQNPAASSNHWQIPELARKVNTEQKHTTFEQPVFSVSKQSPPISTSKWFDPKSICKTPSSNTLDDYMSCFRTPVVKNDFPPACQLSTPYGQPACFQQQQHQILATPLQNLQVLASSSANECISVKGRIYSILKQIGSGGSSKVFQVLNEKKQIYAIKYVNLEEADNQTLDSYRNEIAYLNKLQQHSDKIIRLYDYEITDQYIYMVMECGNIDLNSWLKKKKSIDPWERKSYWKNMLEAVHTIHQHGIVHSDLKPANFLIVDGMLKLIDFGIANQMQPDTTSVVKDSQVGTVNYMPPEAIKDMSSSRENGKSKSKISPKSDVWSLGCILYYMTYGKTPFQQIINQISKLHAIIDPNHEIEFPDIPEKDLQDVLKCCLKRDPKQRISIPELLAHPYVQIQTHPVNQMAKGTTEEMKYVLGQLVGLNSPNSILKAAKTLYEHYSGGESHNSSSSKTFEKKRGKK
Kind of assay: Mps-1 kinase assay with 2 mM ATP (TR-FRET). Background: Time-resolved FRET reads energy transfer from a long-lived donor to a nearby acceptor.

Assay [2] deals with T1, Mps-1 kinase. In words: Mps-1 kinase assay with 10 μM ATP (TR-FRET).

Consider `CS(=O)(=O)c1ccc(Nc2nc3ccc(-c4ccc(NC(=O)Cc5ccc(F)cc5)cc4)cn3n2)c(F)c1` [Example 12.39, N-[4-(2-{[2-fluoro-4-(methylsulfonyl)phenyl]-amino}[1,2,4]triazolo[1,5-a]pyridin-6-yl)phenyl]-2-(4-fluorophenyl)acetamide], for which the results for the 50% inhibitory concentration (IC50) at Mps-1 kinase [1] and on Mps-1 kinase [2] were 16 nM and ≤ 1 nM, respectively.

For `O=C(Cc1ccc(F)cc1)Nc1ccc(-c2ccc3nc(Nc4ccc(F)cc4OC(F)F)nn3c2)cc1` [Example 12.27, N-[4-(2-{[2-(difluoro-methoxy)-4-fluorophenyl]-amino}[1,2,4]triazolo[1,5-a]pyridin-6-yl)phenyl]-2-(4-fluorophenyl)acetamide], the half-inhibitory concentration (IC50) (as a rule, the concentration at which inhibition is half-maximal) at Mps-1 kinase [1] was 9 nM; against Mps-1 kinase [2] it was ≤ 1 nM.

Turning to `CCOc1cc(C(=O)NCCN(C)C)ccc1Nc1nc2ccc(-c3ccc(C(=O)NCc4ccc(F)cc4)cc3)cn2n1` [Example 12.55, N-[2-(dimethylamino)ethyl]-3-ethoxy-4-[(6-{4-[(4-fluoro-benzyl)carbamoyl]phenyl}-[1,2,4]triazolo[1,5-a]pyridin-2-yl)amino]benzamide], the 50% inhibitory concentration (IC50) at Mps-1 kinase [1] and against Mps-1 kinase [2] was ≤ 1 nM in each case.

As for `COc1cc(C(=O)NCCF)ccc1Nc1nc2ccc(-c3ccc(C(=O)NCc4ccc(F)cc4)cc3)cn2n1` [Example 12.45, 4-[(6-{4-[(4-fluorobenzyl)-carbamoyl]phenyl}[1,2,4]triazolo [1,5-a]pyridin-2-yl)-amino]-N-(2-fluoroethyl)-3-methoxybenzamide], the results for the IC50 on Mps-1 kinase [1] and at Mps-1 kinase [2] were 1.4 nM and ≤ 1 nM, respectively.

Regarding `COc1cc(C(=O)N(C)CC(F)(F)F)ccc1Nc1nc2ccc(-c3ccc(NC(=O)Cc4ccc(F)cc4)cc3)cn2n1` [Example 12.09, 4-{[6-(4-{[(4-fluorophenyl)-acetyl]amino}phenyl)[1,2,4]triazolo[1,5-a]pyridin-2-yl]amino}-3-methoxy-N-methyl-N-(2,2,2-trifluoro-ethyl)benzamide], the IC50 was 2.5 nM at Mps-1 kinase [1] and ≤ 1 nM against Mps-1 kinase [2].

With `Cc1cc(C(N)=O)ccc1Nc1nc2ccc(-c3ccc(NC(=O)Cc4ccc(F)cc4)cc3)cn2n1` [Example 12.28, 4-{[6-(4-{[(4-fluorophenyl)-acetyl]amino}phenyl)[1,2,4]triazolo[1,5-a]pyridin-2-yl]amino}-3-methyl-benzamide], the half-maximal inhibitory concentration (IC50) on Mps-1 kinase [1] and against Mps-1 kinase [2] was ≤ 1 nM throughout.

As for `Cc1cc([S@@+](C)[O-])ccc1Nc1nc2ccc(-c3ccc(C(=O)NCc4ccc(F)cc4)cc3)cn2n1` (stereo in doubt) [Example 12.69, N-(4-fluorobenzyl)-4-(2-{[2-methyl-4-(methylsulfinyl)-phenyl]amino}[1,2,4]triazolo [1,5-a]pyridin-6-yl)-benzamide], the IC50 is 4.5 nM on Mps-1 kinase [1] and ≤ 1 nM at Mps-1 kinase [2].

In the case of `CC(C)S(=O)(=O)c1ccc(Nc2nc3ccc(-c4ccc(C(=O)NCc5ccc(F)cc5)cc4)cn3n2)c(OC(F)F)c1` [Example 12.62, 4-(2-{[2-(difluoromethoxy)-4-(propan-2-ylsulfonyl)-phenyl]amino}[1,2,4]-triazolo[1,5-a]pyridin-6-yl)-N-(4-fluorobenzyl)-benzamide], the half-inhibitory concentration (IC50) is 3.5 nM at Mps-1 kinase [1] and ≤ 1 nM at Mps-1 kinase [2].

On to `Cc1ccc(CNC(=O)c2ccc(-c3ccc4nc(Nc5ccc(S(C)(=O)=O)cc5C)nn4c3)cc2)cc1` [Example 12.77, N-(4-methylbenzyl)-4-(2-{[2-methyl-4-(methylsulfonyl)-phenyl]amino}[1,2,4]triazolo [1,5-a]pyridin-6-yl)-benzamide], for which the IC50 against Mps-1 kinase [1] is 11 nM; on Mps-1 kinase [2] it was ≤ 1 nM.

As to `Cc1cc(NS(C)(=O)=O)ccc1Nc1nc2ccc(-c3ccc(C(=O)NCc4ccc(F)cc4)cc3)cn2n1` [Example 12.70, N-(4-fluorobenzyl)-4-[2-({2-methyl-4-[(methylsulfonyl)-amino]phenyl}amino)[1,2,4]triazolo [1,5-a]pyridin-6-yl]-benzamide], the half-maximal inhibitory concentration (IC50) against Mps-1 kinase [1] is 9.5 nM; against Mps-1 kinase [2], ≤ 1 nM.

On to `CCN(Cc1ccc(Nc2nc3ccc(-c4ccc(C(=O)NCc5ccc(F)cc5)cc4)cn3n2)c(OC)c1)C(C)(C)CO` [Example 12.53, 4-{2-[(4-{[ethyl(1-hydroxy-2-methylpropan-2-yl)amino]-methyl}-2-methoxyphenyl)-amino][1,2,4]triazolo[1,5-a]pyridin-6-yl}-N-(4-fluoro-benzyl)benzamide], for which the 50% inhibitory concentration (IC50) against Mps-1 kinase [1] is 6.9 nM; at Mps-1 kinase [2] it was ≤ 1 nM.

Consider `Cc1cc(C(=O)NCCF)ccc1Nc1nc2ccc(-c3ccc(C(=O)NCc4ccc(F)cc4)cc3)cn2n1` [Example 12.67, 4-[(6-{4-[(4-fluorobenzyl)-carbamoyl]phenyl}[1,2,4]triazolo [1,5-a]pyridin-2-yl)-amino]-N-(2-fluoroethyl)-3-methylbenzamide], for which the values for the IC50 against Mps-1 kinase [1] and on Mps-1 kinase [2] were 5 nM and ≤ 1 nM, respectively.

For the compound `COc1cc(S(C)(=O)=O)c(F)cc1Nc1nc2ccc(-c3ccc(NC(=O)Cc4ccc(F)cc4)cc3)cn2n1` [Example 12.12, N-[4-(2-{[5-fluoro-2-methoxy-4-(methylsulfonyl)-phenyl]amino}[1,2,4]-triazolo[1,5-a]pyridin-6-yl)phenyl]-2-(4-fluoro-phenyl)acetamide], the IC50 at Mps-1 kinase [1] is 13 nM; against Mps-1 kinase [2], ≤ 1 nM.

For the compound `Cc1cc([S@@+](C)[O-])ccc1Nc1nc2ccc(-c3ccc(NC(=O)Cc4ccc(F)cc4)cc3)cn2n1` (stereo in doubt) [Example 12.33, 2-(4-fluorophenyl)-N-[4-(2-{[2-methyl-4-(methyl-sulfinyl)phenyl]amino}-[1,2,4]triazolo[1,5-a]pyridin-6-yl)phenyl]acetamide], the figures for the IC50 on Mps-1 kinase [1] and against Mps-1 kinase [2] were 1.4 nM and ≤ 1 nM, respectively.

For the compound `COc1cc([S@@+](C)[O-])ccc1Nc1nc2ccc(-c3ccc(C(=O)NCc4ccc(F)cc4)cc3)cn2n1` (stereo in doubt) [Example 12.51, N-(4-fluorobenzyl)-4-(2-{[2-methoxy-4-(methylsulfinyl)-phenyl]amino}[1,2,4]-triazolo[1,5-a]pyridin-6-yl)-benzamide], the results for the IC50 against Mps-1 kinase [1] and on Mps-1 kinase [2] were 2.6 nM and ≤ 1 nM, respectively.

With `CS(=O)(=O)c1ccc(Nc2nc3ccc(-c4ccc(C(=O)NCc5ccc(F)cc5)cc4)cn3n2)c(OCC(F)(F)F)c1` [Example 02.27, N-(4-fluorobenzyl)-4-(2-{[4-(methylsulfonyl)-2-(2,2,2-trifluoroethoxy)-phenyl]amino}[1,2,4]triazolo[1,5-α]pyridin-6-yl)benzamide], the IC50 at Mps-1 kinase [1] and on Mps-1 kinase [2] was ≤ 1 nM in each case.

As for `COc1cc(S(=O)(=O)NC(C)(C)C)ccc1Nc1nc2ccc(-c3ccc(C(=O)NCc4ccc(F)cc4)cc3)cn2n1` [Example 12.52, 4-(2-{[4-(tert-butyl-sulfamoyl)-2-methoxy-phenyl]amino}[1,2,4]-triazolo[1,5-a]pyridin-6-yl)-N-(4-fluorobenzyl)-benzamide], the results for the IC50 at Mps-1 kinase [1] and against Mps-1 kinase [2] were 14 nM and ≤ 1 nM, respectively.

For the compound `COc1cc(S(C)(=O)=O)ccc1Nc1nc2ccc(-c3ccc(NC(=O)Cc4ccccc4)cc3)cn2n1` [Example 12.42, N-[4-(2-{[2-methoxy-4-(methylsulfonyl)phenyl]-amino}[1,2,4]triazolo[1,5-a]pyridin-6-yl)phenyl]-2-phenylacetamide], the IC50 against Mps-1 kinase [1] was 12 nM; on Mps-1 kinase [2] it was ≤ 1 nM.

As to `COc1cc(S(=O)(=O)NC(C)(C)C)ccc1Nc1nc2ccc(-c3ccc(NC(=O)Cc4ccc(F)cc4)cc3)cn2n1` [Example 12.15, N-[4-(2-{[4-(tert-butyl-sulfamoyl)-2-methoxy-phenyl]amino}[1,2,4]-triazolo[1,5-a]pyridin-6-yl)phenyl]-2-(4-fluoro-phenyl)acetamide], the IC50 on Mps-1 kinase [1] is 1.6 nM; at Mps-1 kinase [2] it was ≤ 1 nM.

Consider `COc1cc(C(N)=O)ccc1Nc1nc2ccc(-c3ccc(C(=O)NCc4ccc(F)cc4)cc3)cn2n1` [Example 12.43, 4-[(6-{4-[(4-fluorobenzyl)-carbamoyl]phenyl}[1,2,4]triazolo [1,5-a]pyridin-2-yl)-amino]-3-methoxy-benzamide], for which the IC50 at Mps-1 kinase [1] and against Mps-1 kinase [2] was ≤ 1 nM throughout.

For the compound `COc1cc(C(=O)N(C)CCN(C)C)ccc1Nc1nc2ccc(-c3ccc(C(=O)NCc4ccc(F)cc4)cc3)cn2n1` [Example 12.49, N-[2-(dimethylamino)ethyl]-4-[(6-{4-[(4-fluorobenzyl)-carbamoyl]phenyl}[1,2,4]triazolo [1,5-a]pyridin-2-yl)-amino]-3-methoxy-N-methylbenzamide], the IC50 against Mps-1 kinase [1] is 3.4 nM; against Mps-1 kinase [2], ≤ 1 nM.

Regarding `Cc1cc(C(=O)NCC(F)(F)F)ccc1Nc1nc2ccc(-c3ccc(C(=O)NCc4ccc(F)cc4)cc3)cn2n1` [Example 12.66, 4-[(6-{4-[(4-fluorobenzyl)-carbamoyl]phenyl}[1,2,4]triazolo [1,5-a]pyridin-2-yl)-amino]-3-methyl-N-(2,2,2-trifluoroethyl)benzamide], the IC50 against Mps-1 kinase [1] was 2 nM; at Mps-1 kinase [2], ≤ 1 nM.
